# Results as given in ChEMBL document CHEMBL2384956, “Discovery of tetrahydropyrazolopyrimidine carboxamide derivatives as potent and orally active antitubercular agents” (ACS Med Chem Lett, 2013).
# The source made the active and inactive calls. The calls are words filed in the database; no cut-off is given here.
# Tests used:
# [1] = Aqueous solubility of the compound at pH 6.8; assay type: physicochemical
# [2] = Plasma protein binding in mouse; assay type: ADME, cell-free; conditions: read-out: PPB (converted)
# [3] = Octanol-water partition coefficient, log P of the compound; assay type: physicochemical
# [4] = test system: Mycobacterium tuberculosis; test: Antitubercular activity against Mycobacterium tuberculosis H37Rv ATCC 27294 […]; assay type: functional
# [5] = Plasma protein binding in human; assay type: ADME, cell-free; conditions: read-out: PPB (converted)
# [6] = Oral bioavailability in mouse at 25 mg/kg; assay type: ADME, organism-based; conditions: in vivo
# [7] = molecular target: T1, Nuclear receptor subfamily 1 group I member 2 (Homo sapiens, UniProt O75469); test: Induction of PXR-mediated CYP3A4 expression in human DPX2 cells after 24 hrs by luciferase reporter gene assay; assay type: cell-based; conditions: dpx2, 24 h
# T1 sequence (O75469 whole entry): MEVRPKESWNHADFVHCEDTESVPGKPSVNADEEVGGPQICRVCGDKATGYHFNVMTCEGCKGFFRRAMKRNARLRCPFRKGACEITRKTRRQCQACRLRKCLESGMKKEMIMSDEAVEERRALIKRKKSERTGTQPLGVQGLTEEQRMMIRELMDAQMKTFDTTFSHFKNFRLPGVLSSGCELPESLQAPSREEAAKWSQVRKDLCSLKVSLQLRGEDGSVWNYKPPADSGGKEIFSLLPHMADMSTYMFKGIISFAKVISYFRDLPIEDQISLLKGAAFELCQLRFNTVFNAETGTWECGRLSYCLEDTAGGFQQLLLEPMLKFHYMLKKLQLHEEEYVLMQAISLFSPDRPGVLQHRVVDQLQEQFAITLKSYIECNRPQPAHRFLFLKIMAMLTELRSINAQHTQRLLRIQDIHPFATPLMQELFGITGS
# [8] = Clearance in mouse liver microsomes; assay type: ADME, Microsome; conditions: read-out: CLH
# [9] = AUC in mouse at 200 mg/kg, po; assay type: ADME, organism-based; design: dose 200 mg/kg, route oral; conditions: plasma
# [10] = molecular target: Cytochrome P450 3A4 (Homo sapiens, UniProt P08684); test: Inhibition of CYP3A4 in human liver microsomes using midazolam as substrate by LC-MS/MS analysis; assay type: ADME, Microsome
# Chain of Cytochrome P450 3A4 (P08684 whole entry): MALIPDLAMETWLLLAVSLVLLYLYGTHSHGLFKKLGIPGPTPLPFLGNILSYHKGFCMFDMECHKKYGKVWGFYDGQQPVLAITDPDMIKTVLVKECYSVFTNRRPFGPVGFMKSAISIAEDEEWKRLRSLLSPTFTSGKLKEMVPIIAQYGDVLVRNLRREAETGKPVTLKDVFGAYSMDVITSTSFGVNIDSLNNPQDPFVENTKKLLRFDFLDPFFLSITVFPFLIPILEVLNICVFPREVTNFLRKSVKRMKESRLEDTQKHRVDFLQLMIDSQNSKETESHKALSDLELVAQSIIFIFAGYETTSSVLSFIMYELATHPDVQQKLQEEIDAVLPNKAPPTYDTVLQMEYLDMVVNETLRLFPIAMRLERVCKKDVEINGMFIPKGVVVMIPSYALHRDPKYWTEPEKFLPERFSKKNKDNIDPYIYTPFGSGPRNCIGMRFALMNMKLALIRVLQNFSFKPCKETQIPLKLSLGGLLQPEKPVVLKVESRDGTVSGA
# [11] = Cmax in mouse at 25 mg/kg, po; assay type: ADME, organism-based; design: dose 25 mg/kg, route oral; conditions: in vivo
# [12] = Clearance in mouse at 5 mg/kg, iv; assay type: ADME, organism-based; design: dose 5 mg/kg, route intravenous; conditions: in vivo
# [13] = Elimination half life in mouse at 5 mg/kg, iv; assay type: ADME, organism-based; design: dose 5 mg/kg, route intravenous; conditions: in vivo, read-out: beta t1/2 (converted)
# [14] = test system: Mycobacterium tuberculosis; test: Antitubercular activity against Mycobacterium tuberculosis infected in BALB/c mouse assessed as reduction in log10CFU at 100 mg/kg, po qd administered 7 days post-infection for 28 days relative to control; assay type: functional
# [15] = Ratio of Cmax in mouse lung to Cmax in mouse plasma at 25 mg/kg, po; assay type: ADME, organism-based; design: dose 25 mg/kg, route oral
# [16] = Volume of distribution at steady state in mouse at 5 mg/kg, iv; assay type: ADME, organism-based; design: dose 5 mg/kg, route intravenous; conditions: in vivo, read-out: Vdss
# [17] = molecular target: Cytochrome P450 3A5 (Homo sapiens, UniProt P20815); test: Inhibition of CYP3A5 in human liver microsomes using midazolam as substrate by LC-MS/MS analysis; assay type: ADME, Microsome
# Chain of Cytochrome P450 3A5 (P20815 whole entry): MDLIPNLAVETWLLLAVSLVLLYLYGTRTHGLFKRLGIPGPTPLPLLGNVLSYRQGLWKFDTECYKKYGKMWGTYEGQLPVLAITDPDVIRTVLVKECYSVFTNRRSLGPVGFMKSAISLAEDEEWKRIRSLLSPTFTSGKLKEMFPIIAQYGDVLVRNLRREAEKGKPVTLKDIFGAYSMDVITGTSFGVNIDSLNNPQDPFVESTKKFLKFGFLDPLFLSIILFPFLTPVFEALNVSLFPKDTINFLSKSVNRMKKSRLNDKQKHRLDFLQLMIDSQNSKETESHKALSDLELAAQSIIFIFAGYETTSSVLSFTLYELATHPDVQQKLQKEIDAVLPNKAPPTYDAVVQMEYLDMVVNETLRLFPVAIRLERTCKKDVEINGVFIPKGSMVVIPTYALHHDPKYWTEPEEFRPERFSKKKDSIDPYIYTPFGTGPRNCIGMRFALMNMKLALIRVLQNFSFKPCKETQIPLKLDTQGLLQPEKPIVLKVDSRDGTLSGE
# [18] = AUC in mouse at 25 mg/kg, po; assay type: ADME, organism-based; design: dose 25 mg/kg, route oral; conditions: plasma
# [19] = molecular target: Cytochrome P450 2D6 (Homo sapiens, UniProt P10635); test: Inhibition of CYP2D6 in human liver microsomes using bufuralol as substrate by LC-MS/MS analysis; assay type: ADME, Microsome
# Chain of Cytochrome P450 2D6 (P10635 whole entry): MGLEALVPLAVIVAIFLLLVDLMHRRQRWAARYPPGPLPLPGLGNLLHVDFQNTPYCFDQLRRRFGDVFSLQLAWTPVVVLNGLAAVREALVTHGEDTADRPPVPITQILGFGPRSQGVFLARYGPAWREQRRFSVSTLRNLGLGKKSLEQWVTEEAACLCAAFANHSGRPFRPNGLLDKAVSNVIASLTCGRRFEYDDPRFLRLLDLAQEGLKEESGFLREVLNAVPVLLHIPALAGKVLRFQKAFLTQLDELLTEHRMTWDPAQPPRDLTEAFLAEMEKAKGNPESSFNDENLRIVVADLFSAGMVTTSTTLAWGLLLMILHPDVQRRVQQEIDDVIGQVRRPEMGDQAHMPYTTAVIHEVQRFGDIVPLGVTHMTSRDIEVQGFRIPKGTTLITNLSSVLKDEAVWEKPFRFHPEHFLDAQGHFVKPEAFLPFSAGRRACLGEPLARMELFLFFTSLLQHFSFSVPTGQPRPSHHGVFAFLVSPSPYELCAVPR
# [20] = Cmax in mouse at 200 mg/kg, po; assay type: ADME, organism-based; design: dose 200 mg/kg, route oral; conditions: in vivo
# [21] = molecular target: Cytochrome P450 2C9 (Homo sapiens, UniProt P11712); test: Inhibition of CYP2C9 in human liver microsomes using diclofenac as substrate by LC-MS/MS analysis; assay type: ADME, Microsome
# Chain of Cytochrome P450 2C9 (P11712 whole entry): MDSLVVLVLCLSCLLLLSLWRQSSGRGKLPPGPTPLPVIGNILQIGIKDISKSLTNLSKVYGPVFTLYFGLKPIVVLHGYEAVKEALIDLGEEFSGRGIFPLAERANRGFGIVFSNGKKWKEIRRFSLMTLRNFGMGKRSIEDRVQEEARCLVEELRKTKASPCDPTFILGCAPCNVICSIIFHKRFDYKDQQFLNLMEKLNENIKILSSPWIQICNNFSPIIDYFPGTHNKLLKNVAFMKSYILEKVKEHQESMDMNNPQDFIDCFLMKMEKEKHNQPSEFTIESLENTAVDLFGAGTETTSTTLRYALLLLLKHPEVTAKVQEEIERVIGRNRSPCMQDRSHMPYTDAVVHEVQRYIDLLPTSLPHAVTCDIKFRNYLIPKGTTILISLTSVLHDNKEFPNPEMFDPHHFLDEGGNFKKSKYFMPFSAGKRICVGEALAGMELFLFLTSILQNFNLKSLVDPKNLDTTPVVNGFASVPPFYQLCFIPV
# [22] = Ratio of AUC in mouse lung to AUC in mouse plasma at 25 mg/kg, po; assay type: ADME, organism-based; design: dose 25 mg/kg, route oral; conditions: read-out: Ratio AUC
# [23] = Cmax in mouse; assay type: ADME, organism-based; conditions: in vivo
# [24] = test system: Mycobacterium tuberculosis; test: Bactericidal activity against Mycobacterium tuberculosis H37Rv ATCC 27294 infected in activated human THP1 cells; assay type: functional, organism-based; conditions: THP-1
# [25] = AUC in mouse; assay type: ADME, organism-based; conditions: plasma
Structure (SMILES),solubility [1] [µM],fraction unbound [2],logP [3],MIC [4] [µM],fraction unbound [5],bioavailability [6] [%],Activity [7],microsomal CLint [8] [µL/min/mg],inhibition (INH) [10],Cmax [11] [µM],clearance [12] [L/h/kg],half-life [13] [h],Activity [14],Kp [15],Vd [16] [L/kg],inhibition (INH) [17],AUC [18] [µM·h],inhibition (INH) [19],inhibition (INH) [21],Kp [22],other results
COCCOc1ccc([C@H]2C[C@@H](C(F)(F)F)n3ncc(C(=O)NCc4ccc(F)cc4)c3N2)cc1,6,0.015,4.1,0.44,0.019,,,,,,,,,,,,,,,,
Cc1ccc([C@H]2C[C@@H](C(F)(F)F)n3ncc(C(=O)NCc4ccc(F)cc4)c3N2)nc1,9,0.042,4.4,0.44,0.039,100,Not Active,71.8,Not Active,3.6,2.28,1.3,inactive,1.9,3.4,Not Active,25,Not Active,Not Active,2.1,AUC [9]: 91.9 µM·h; Cmax [20]: 11.8 µM
O=C(NCc1ccc(F)cc1)c1cnn2c1N[C@@H](c1ccc(N3CCOCC3)cc1)C[C@H]2C(F)(F)F,< 4,0.016,4.8,0.87,0.018,,,,,,,,,,,,,,,,
Cc1ccc([C@H]2C[C@@H](C(F)(F)F)n3ncc(C(=O)NCc4ccc(F)cc4)c3N2)cc1,< 4,< 0.01,6.3,0.15,< 0.01,65,Not Active,43.5,Not Active,3.6,1.86,4.2,,3.2,6.3,Not Active,18.9,Not Active,Not Active,4.5,Cmax [23]: 8.3 µM; log10cfu [14]: 3.5; Activity [24]: Active; AUC [25]: 91.1 µM·h
Cc1ccc([C@H]2C[C@@H](C(F)F)n3ncc(C(=O)NCc4ccc(F)cc4)c3N2)nc1,212,0.052,4.6,0.6,0.043,53,Not Active,85.6,Not Active,5.5,1.44,1.8,inactive,1.7,2.6,Not Active,16.8,Not Active,Not Active,2.8,AUC [9]: 77.7 µM·h; Cmax [20]: 15.2 µM
COc1ccc(CNC(=O)c2cnn3c2N[C@@H](c2ccc(C)cc2)C[C@H]3C(F)(F)F)cn1,< 4,< 0.01,5.1,0.47,< 0.01,,,,,,,,,,,,,,,,
CC[C@@H](CO)NCCN[C@@H](CC)CO,,,,,,,,,,,,,Active,,,,,,,,
Cc1ccc([C@H]2C[C@@H](C(F)(F)F)n3ncc(C(=O)NCc4ccc(F)cc4)c3N2)o1,< 4,< 0.01,5.5,0.13,< 0.01,,,,,,,,,,,,,,,,
COCCOc1ccc([C@H]2C[C@@H](C(F)(F)F)n3ncc(C(=O)NCc4ccc(F)cn4)c3N2)cc1,20,0.108,3.2,3.7,0.122,,,,,,,,,,,,,,,,
O=C(NCc1ccc(F)cc1)c1cnn2c1N[C@@H](c1ccc(OC3COC3)cc1)C[C@H]2C(F)(F)F,9,0.024,5.1,0.73,0.027,52,Not Active,8.92,Not Active,3.7,0.594,4.1,inactive,2.7,2.5,Not Active,41.7,Not Active,Not Active,2.2,AUC [9]: 71.3 µM·h; Cmax [20]: 7.3 µM
Cc1ccc([C@H]2C[C@@H](C(F)(F)F)n3ncc(C(=O)NCc4ccc(F)cn4)c3N2)nc1,347,0.128,3.2,52.2,0.181,,,,,,,,,,,,,,,,
Cc1ccc([C@H]2C[C@@H](C(F)(F)F)n3ncc(C(=O)NCc4ccc(F)cn4)c3N2)cc1,< 4,< 0.01,4.9,0.83,0.01,,,,,,,,,,,,,,,,
